Laboratory results: PMC12809504, “Polo-like kinase 1–inhibitor co-complex structures via the surface-entropy reduction approach and a DARPin-assisted approach” (Acta Crystallographica Section D: Structural Biology, 2025)

Legend:
[1] = target: T1, Polo-like kinase 1 (PLK1) (Homo sapiens, UniProt P53350); assay: TR-FRET kinase-activity assay, […] ATP; assay type: biochemical; parameters: kinase domain, residues 33–345, PLK1^WT
[2] = target: T1, Polo-like kinase 1 (PLK1); assay: (soak, […] Å); IC50 by TR-FRET kinase assay at […] ATP; assay type: biochemical; parameters: kinase domain, residues 33–345 (Ala33–Lys345), PLK1^WT; with DARPin 3H10 (crystal structure only)

T1 sequence (P53350 33-345): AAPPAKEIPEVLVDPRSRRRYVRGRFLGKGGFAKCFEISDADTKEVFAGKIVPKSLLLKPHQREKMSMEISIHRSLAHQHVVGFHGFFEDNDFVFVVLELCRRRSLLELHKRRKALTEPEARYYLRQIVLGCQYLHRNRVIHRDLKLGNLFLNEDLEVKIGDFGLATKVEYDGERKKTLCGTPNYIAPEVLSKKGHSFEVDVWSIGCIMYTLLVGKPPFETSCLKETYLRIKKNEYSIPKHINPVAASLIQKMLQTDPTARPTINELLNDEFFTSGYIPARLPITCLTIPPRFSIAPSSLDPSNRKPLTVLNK

Row | SMILES | IC50 [1] [nM] | IC50 [2] [nM]
1 | CCn1c(=C(C#N)C(=O)NCC(F)(F)F)sc(=CNc2cccc(CCN3CCCC3)c2)c1=O [ZK-Thiazolidinone] | 178 ± 52.6 | 
2 | CCn1c(=O)c(=CNc2ccnc(N(C)C3CCN(C)CC3)c2)s/c1=C(/C#N)C(=O)NCC(F)(F)F [compound 1, (2Z)-2-cyano-2-{3-ethyl-5-[({2-[methyl(1-methylpiperidin-4-yl)amino]pyridin-4-yl}amino)methylidene]-4-oxo-1,3-thiazolidin-2-ylidene}-N-(2,2,2-trifluoroethyl)acetamide] |  | 3.6 ± 2.3
